From US12655101B2, “Small molecules with antibacterial activity” (NEW MEXICO TECH UNIVERSITY RESEARCH PARK CORPORATION, priority 2021, dated 2026)
Like-named read-outs stand apart in the source and are kept apart here.

Experiments:
Type in all cases: cell-based
A. baumannii ATCC 15151 [1] = assay: ATP decrease (luciferase); details: 1xMIC and 2xMIC; 25 minutes
[2] = tested on: drug-resistant A. baumannii strains obtained from the CDC and Prevention Antimicrobial Isolate Bank; assay: MIC on drug-resistant A. baumannii strains from the CDC Antimicrobial Isolate Bank; details: Acinetobacter baumannii, 18 h, 18 hours
[3] = tested on: A. baumannii ATCC BAA-1797; assay: Colony counts of A. baumannii ATCC BAA-1797 treated with 4xMIC for 16 hours
A. baumannii = assay: Synergy with PME (Table 7)
[4] = tested on: A. baumannii ATCC BAA-1797; assay: MIC on A. baumannii ATCC BAA-1797; details: Acinetobacter baumannii
Method in brief: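 Cells adjusted to ~5×10^5 CFU/mL in MHB or MHB with 10%, 20% or 40% FBS, treated with two-fold serial compound dilutions in glass tubes and incubated 18 hours at 37° C. Growth read visually or by MTT (10% v/v, 10 min) with OD at 595 nm.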

A. baumannii ATCC 15151 [5] = assay: microbe, parasite or virus in culture; details: Table 7
Description: A. baumannii ATCC 15151 was grown from a glycerol stock by placing a small volume of cells onto a MHA plate. The MHA plate was incubated overnight at 37° C. A single colony was subsequently used to inoculate MHB to obtain a bacterial broth suspension. The MHB broth suspension was grown at 37° C. on a rotary shaking incubator (100 rpm) for 12 hours. The bacterial cell concentration was adjusted to ˜5×10^5 CFU/mL in MHB or MHB using OD at 595 nm. […] (PAO) and the negative control was non-treated cells. All treatments were performed in triplicate. The plate was incubated for 20 hours at 37° C. in a Tecan plate reader, where the cells were shaken every hour and an OD reading was taken at 600 nm. […] These cells were again plated in a 96-well plate and incubated as before. This was performed a total of 30 days.

A. baumannii ATCC 1515 = assay: Membrane depolarization detected by DiOC2(3); details: 1xMIC; 10, 20, 30, and 50 minutes
[6] = tested on: RecA-GFP fusion protein in E. coli MG1655; assay: Inhibition of norfloxacin-triggered RecA-GFP induction in E. coli MG1655
Description: An increase in DNA damage-induced RecA protein expression is required for identification and repair of DNA lesions. LexA-repressed transcription of a norfloxacin-triggered SOS response was measured by detecting an increase in RecA-GFP fusion protein fluorescence in an E. coli recombinant model. The compounds of the disclosure inhibited RecA-GFP induction and presumably, the concurrent SOS response. Inhibition of RecA-GFP expression correlated with an increase in cell death, most likely as a result of ALD activation. Sub-potent concentrations of Polymixin E were used to facilitate entry of the compounds into cells.
E. coli MG1655 was grown from a glycerol stock by placing a small volume of cells onto a MHA plate. The MHA plate was incubated overnight at 37° C. A single colony was subsequently used to inoculate MHB+10 μg/mL kanamycin to obtain a bacterial broth suspension. This was grown in at 37° C. on a rotary shaking incubator (100 rpm) for 12 hours. The bacterial cell concentration was adjusted to ˜5×10^5 colony forming units per milliliter (CFU/mL) in MHB using optical density at 595 nm. Treated cells with polymyxin E (PME) or norfloxacin (in μg/ml) at indicated concentrations for 30 minutes at 37° C. and then added a compound of the disclosure at indicated micromolar concentrations. Incubated for 3.5 hours at 37° C. Cell samples were read on the flow cytometer to detect (green fluorescent) RLU RecA expression and/or shutdown.
E. coli MG1655 was grown from a glycerol stock by placing a small volume of cells onto a MHA plate. The MHA plate was incubated overnight at 37° C. A single colony was subsequently used to inoculate MHB+10 μg/mL kanamycin to obtain a bacterial broth suspension. The MHB broth suspension was grown at 37° C. on a rotary shaking incubator (100 rpm) for 12 hours. The bacterial cell concentration was adjusted to ˜5×10^5 CFU/mL in MHB using OD at 595 nm.
Cells were treated with 0.03 μg/mL and 0.06 μg/mL norfloxacin for 30 minutes at 37° C. Then, 100 μM of the compounds were added. The cells were incubated for 3.5 hours at 37° C. 200 μL aliquots were removed and read by a flow cytometer to detect RecA production and/or shutdown. The cells were incubated for an additional 18 hours at 37° C. to assess overall toxicity.

HeLa cells = assay: HeLa cell toxicity IC50 (MTT); details: Homo sapiens

**Q.** How did the ATP decrease (A. baumannii ATCC 15151 [1]) turn out when Cl.Fc1ccc(N/N=C/c2c[nH]c3cccc(OCc4ccccc4)c23)cc1 [Compound 27, (E)-2-((4-(benzyloxy)-1H-indol-3-yl)methylene)-1-(4-fluorophenyl)hydrazin-1-ium] was run?
**A.** Its ATP decrease is “caused a decrease in ATP”.

**Q.** What about the MIC ([2]; A. baumannii CDC AR033, read-out: MIC values for AR033) of the same molecule?
**A.** The MIC was 25 µM.

**Q.** And the MIC ([2]; A. baumannii CDC AR083, read-out: MIC values for AR083)?
**A.** The MIC was 12.5 µM.

**Q.** What about the “Kill at 4X MIC at 16 hours” value ([3]; 4X MIC) of the same molecule?
**A.** Its value is 5-logs.

**Q.** And the “kill of A. baumannii ATCC BAA-1797” value ([3]; 4xMIC (24 μM Compound 25, 24 μM Compound 26, 100 μM Compound 27, 48 μM Compound 14, 100 μM Compound 15))?
**A.** Its value is ~5 orders of magnitude.

**Q.** And the “Synergize with PME?” value (A. baumannii)?
**A.** Its value is “Yes, at 6 μM”.

**Q.** And the MIC ([4]; ATCC 1797 / ATCC BAA-1797, 0% FBS, read-out: MIC (μM) in MDR A. baumannii ATCC 1797 0% FBS)?
**A.** Its MIC is 12.5 µM.

**Q.** And the MIC ([4]; ATCC 1797 / ATCC BAA-1797, 10% FBS, read-out: MIC (μM) in MDR A. baumannii ATCC 1797 10% FBS)?
**A.** Its MIC is > 100 µM.

**Q.** What about the MIC ([4]; ATCC 1797 / ATCC BAA-1797, read-out: MIC (μM) in MDR A. baumannii ATCC 1797 40% FBS, 40% FBS) of the same molecule?
**A.** The MIC was 50 µM.

**Q.** And the MIC ([4]; ATCCBAA1797, 18 h, read-out: MIC in the presence of 40% FBS, A. baumannii ATCC BAA-1797, 40% FBS)?
**A.** The MIC was 25 µM.

**Q.** What about the MIC ([4]; ATCCBAA1797, A. baumannii ATCC BAA-1797, absence of serum, read-out: MIC in the absence of serum) of the same molecule?
**A.** The MIC was 5 µM.

**Q.** What about the MIC ([4]; ATCCBAA1797, Table 7, 10% FBS, read-out: MIC in 10% FBS) of the same molecule?
**A.** The MIC was > 100 µM.

**Q.** What about the MIC ([4]; ATCCBAA1797, Table 7, no serum stated, read-out: MIC) of the same molecule?
**A.** The MIC was 12.5 µM.

**Q.** And the MIC ([4]; ATCCBAA1797, read-out: MIC in 40% FBS (μM), Table 7, 40% FBS)?
**A.** Its MIC is 50 µM.

**Q.** And the “Evolution of resistance?” value (A. baumannii ATCC 15151 [5])?
**A.** Its value is “Yes; 4-fold”.

**Q.** What about the “cell membrane depolarization over time” value (A. baumannii ATCC 1515) of the same molecule?
**A.** The value was “caused the most depolarization”.

**Q.** What about the “RecA attenuation with norflox on E. coli” value [6] of the same molecule?
**A.** Its value is “Yes”.

**Q.** And the IC50 (HeLa cells; HeLa, read-out: IC50 on HeLa in 40% FBS, Table 7)?
**A.** Its IC50 is 69.7 µM.

**Q.** And the IC50 (HeLa cells; read-out: IC50 40% FBS, HeLa cells)?
**A.** Its IC50 is 69.7 µM.
